Test results taken from ChEMBL document CHEMBL5729087, “Pyranopyrazole and pyrazolopyridine immunomodulators for treatment of autoimmune diseases” (2022).

Experiments:
[1] = biological target: T1, Coagulation factor XII (Homo sapiens, UniProt P00748); experiment: Factor XIIa (FXIIa) Inhibitory Activity: In a 96-well clear bottom plate, 80 μl of assay buffer was added to each well. Assay buffer consists of 0.5× Hank's Balanced Salt Solution (Invitrogen), buffered with 25 mM HEPES pH 7.4 (Invitrogen) and 0.5× Tris-buffered saline with Tween-20 0.05% (Santa Cruz Biotechnology). Test compounds were first dissolved in DMSO (Sigma) and then 4 μl were added to test wells containing assay buffer. Serial dilutions using an automated multi-channel pipette were used to generate a concentration range of approximately 1-100 μM. Human FXIIa (Enzyme Research Labs) was diluted in assay buffer to a final concentration of 12.5 nM. 80 μl of this enzyme solution was added to the assay wells. The enzyme/compound mixtures were incubated for 10 minutes at room temperature. Chromogenic substrate (Pefachrome XIIa; Enzyme Research Labs) was added to assay wells at a final concentration of 400 μM. The assay plate was spun for 1 minute at 1500 g and then read at 37° C. in a SpectraMax M2 plate reader (λ=405 nm). Activity was quantified as the rate of change in absorbance, which corresponds to the rate of substrate cleavage. IC50 values were determined as the concentration of inhibitor that produced 50% of the rate of change of control wells without any inhibitor. For compounds with activity <1 μM, the assay was repeated with a lower concentration range, typically from 10-1000 nM.
T1 sequence (P00748 whole entry): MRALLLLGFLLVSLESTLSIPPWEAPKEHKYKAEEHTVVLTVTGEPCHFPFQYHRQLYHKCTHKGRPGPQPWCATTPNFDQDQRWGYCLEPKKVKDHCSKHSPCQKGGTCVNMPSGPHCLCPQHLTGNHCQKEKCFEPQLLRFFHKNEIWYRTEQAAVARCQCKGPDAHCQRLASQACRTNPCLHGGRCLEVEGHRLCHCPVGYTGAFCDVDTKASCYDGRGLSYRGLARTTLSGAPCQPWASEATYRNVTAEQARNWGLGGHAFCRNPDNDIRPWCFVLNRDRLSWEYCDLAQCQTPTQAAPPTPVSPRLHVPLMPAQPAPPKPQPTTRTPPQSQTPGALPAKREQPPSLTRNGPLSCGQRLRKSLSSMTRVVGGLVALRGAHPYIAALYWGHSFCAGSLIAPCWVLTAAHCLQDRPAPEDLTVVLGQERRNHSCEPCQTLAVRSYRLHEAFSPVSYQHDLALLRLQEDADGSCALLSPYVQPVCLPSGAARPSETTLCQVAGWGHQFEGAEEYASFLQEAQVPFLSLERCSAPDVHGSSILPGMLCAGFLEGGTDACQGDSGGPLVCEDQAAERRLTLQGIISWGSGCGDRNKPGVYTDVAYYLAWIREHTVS

[2] = biological target: Prothrombin (Homo sapiens, UniProt P00734); experiment: Counterscreens for Selectivity: Thrombin. In a 96-well white opaque plate, 80 μl of assay buffer was added to each well. Test compounds were added, and serially diluted as above, to generate a concentration range of approximately 1-100 μM. Human alpha-thrombin (Enzyme Research Labs) was diluted in assay buffer to a final concentration of 12.5 nM. 80 μl of this enzyme solution was added to the assay wells. The enzyme/compound mixtures were incubated for 10 minutes at room temperature. Fluorogenic substrate (Boc-Val-Pro-Arg-7-amido-4-methylcoumarin; Sigma) was added to assay wells at a final concentration of 20 μM. The assay plate was spun for 1 minute at 1500 g and then read at 37° C. in a SpectraMax M2 plate reader (λex=380 nm and λem=460 nm). Activity was quantified as the rate of change in fluorescence, which corresponds to the rate of substrate cleavage. IC50 values were determined as the concentration of inhibitor that produced 50% of the rate of change of control wells without any inhibitor. For compounds with activity <1 μM, the assay was repeated with a lower concentration range, typically from 10-1000 nM.

Structure (SMILES): CC(C)N1CCc2c(N)nn(C(=O)C3CCNc4ccc(F)cc43)c2C1 (stereo not given)
- IC50 [1]: 60 µM

Structure (SMILES): Cc1cc2c(C(=O)n3nc4c(c3N)CCNC4)cccc2[nH]1
- IC50 [1]: 0.15 µM
- IC50 [2]: > 150 µM

Structure (SMILES): CN(C)S(=O)(=O)N1CCc2c(nn(C(=O)C3CCNc4ccccc43)c2N)C1 (stereo not given)
- IC50 [1]: 0.25 µM
- IC50 [2]: > 75 µM
